# From EP3838286B1, “ANTIMICROBIAL PEPTIDE FROM POLISTES GALLICUS VENOM AND ITS ANALOGS” (Latoxan, priority 2019, dated 2021)
# Like-named read-outs stand apart in the source and are kept apart here. Square brackets hold non-standard residues; d marks the D form. Peptide text beside a SMILES is read from it.
# Tests used:
# [1] = tested on: H. pylori
# [2] = tested on: MDA-MB-231; test: Antitumor / antiproliferative activity (resazurin); assay type: cell-based, human; conditions: breast cancer cells; 5,000 cells/well; 48 h; read-out: IC50 antiproliferative effect MDA-MB-231
# Procedure: (§1) Human cancer cell lines (Mia PaCa-2 (CRL-1420), PC-3 (CRL-1435), MDA-MB-231 (HTB-26)) and normal lung fibrobasts (BEAS-2B (ATCC CRL-9609) and IMR-90 (ATCC CCL-186)) were obtained from American Type Culture Collection (ATCC). HUVEC cells were obtained from Sigma Aldrich and were grown in defined all-in-one ready to use endothelial cell growth medium (Sigma Aldrich). Other cells were cultured in Dulbecco's modified Eagle's medium (DMEM, Gibco Life Technologies) supplemented with 10% heat-inactivated fetal calf serum (FCS, Lonza) at 37 °C in an incubator containing 5% CO2. Cells were sub-cultured in new media every 3-4 days. Antiproliferative / antitumor effects of the peptides were measured as previously described (Borie et al., Eur J Med Chem. 2018;148:306-313). Briefly, cells were detached from growing flask using trypsin, cells were counted and seeded in 96 well-plates in the growth media at an initial cell density of 5000 cells/well. Cells were left for 4 h to attach to the wells. Cells were then treated with increasing concentrations of peptides diluted in culture media. After 48 h incubation at 37 °C in a 5% CO2 incubator, wells were emptied and cell number was evaluated using Resazurin based in vitro toxicity assay kit (from Sigma-Aldrich) following manufacturer's instructions. Briefly, Resazurin stock solution was diluted 1:10 in sterile PBS containing calcium and magnesium (PBS, pH 7.4) and empty wells were filled with 100 µL of the diluted solution. After 4 h incubation at 37 °C, fluorescence intensity was measured using microplate reader (Synergy Mx, Biotek) with an excitation wavelength of 530 nm and an emission wavelength of 590 nm. The fluorescence values were normalized by the controls (buffer treated cells) and expressed as per-cent viability. The IC50 values of peptides on cell division / proliferation (i.e. the concentration of derivative causing a reduction of 50% of cell division) were determined using GraphPad ® Prism 7 software. t-Test and two way ANOVA analyses were used to address the significant differences between mean values with significance set at p < 0.05.
# [3] = tested on: PC-3; test: Antitumor / antiproliferative activity (resazurin); assay type: cell-based, human; conditions: prostate cancer cells; 5,000 cells/well; 48 h; read-out: IC50 antiproliferative effect PC-3
# Procedure: as §1
# [4] = tested on: MiaPaCa-2; test: Antitumor / antiproliferative activity (resazurin); assay type: cell-based, human; conditions: pancreas cancer cells; 5,000 cells/well; 48 h; read-out: IC50 antiproliferative effect MiaPaCa-2
# Procedure: as §1
# [5] = tested on: S. enterica
# [6] = tested on: A. gandavensis
# [7] = tested on: S. flexneri
# [8] = tested on: P. aeruginosa
# [9] = tested on: C. rodentium
# [10] = tested on: Pseudomonas aeruginosa; test: Stability of the peptides to proteases and human serum (MIC of digested peptides); assay type: in vitro ADME; conditions: for MIC (µM) Serum4h: after 4 h at 37°C in human serum; for MIC (µM) Serum4h / MIC (µM) Chymotrypsin / MIC (µM) Pepsin / MIC (µM) Trypsin / MIC (µM) Serum24h / MIC (µM) Control: against Pseudomonas aeruginosa; for MIC (µM) Chymotrypsin: after 4 h at 37°C with chymotrypsin; for MIC (µM) Chymotrypsin / MIC (µM) Trypsin: pH 7; for MIC (µM) Pepsin: after 4 h at 37°C with pepsin, pH2; for MIC (µM) Trypsin: after 4 h at 37°C with trypsin; for MIC (µM) Serum24h: after 24 h at 37°C in human serum; for stability to proteases and human serum: pepsin, trypsin, chymotrypsin; for MIC (µM) Control: peptide incubated in PBS, not treated with proteases
# Procedure: In order to evaluate the stability of the peptides to condition they will face in vivo, their resistance to proteases and human serum was evaluated (Oyama et al., 2017 Biofilms Microbiomes, Dec 1;3:33). Briefly, one volume of peptides (at 1 mM) was diluted in one volume of proteases (Pepsin, Trypsin, Chymotrypsin, Papain all from Sigma Aldrich and diluted at 2 mg/ml in HCl 10 mM pH2 for Pepsin, PBS pH 7 for Trypsin and Chymotrysin and PBS pH 6 for Papain) or human serum (Sigma Aldrich H4522). Peptides incubated in the same conditions in PBS were used as controls. After 4 h (for proteases) and 4 or 24 h (for human serum) of incubation at 37°C, PMSF was added to the reaction mixture at a final concentration of 100 µM to stop the digestion. MIC of the digested peptides were then determined as explained above.
# [11] = tested on: M. smegmatis; conditions: 72 h
# [12] = tested on: P. aeruginosa FQR
# [13] = Cytotoxicity assay (resazurin); assay type: cell-based; conditions: human
# Procedure: Normal human cells used were BEAS-2B (ATCC CRL-9609), IMR-90 (ATCC CCL-186) and Human Umbilical Vein Endothelial Cells (HUVEC) (from Sigma-Aldrich) corresponding respectively to human normal lung epithelial, normal lung fibroblast cells and human normal endothelial cells. All cells except HUVEC cells were cultured in Dulbecco's modified essential medium (DMEM) supplemented with 10% fetal calf serum (FCS), 1% L-glutamine and 1% antibiotics (all from Invitrogen). HUVEC cells were cultured in specific endothelial media (from Sigma Aldrich). Cells were seeded onto […] maintained in a 5% CO2 incubator at 37 °C. Cells grown on 25 cm^2 flasks were detached using trypsin-EDTA solution (from Thermofisher), counted using Mallassez counting chamber and seeded into 96-well cell culture plates (Greiner bio-one) at approximately 10,000 cells per well. The cells were left to grow for 48-72 h at 37 °C in a 5% CO2 incubator until they reached confluence. Plates were then aspirated and increasing concentrations of peptides diluted in culture media were added to the cells for 48 h at 37 °C in a 5% CO2 incubator. At the end of the incubation, wells were emptied and cell viability was evaluated using Resazurin based in vitro toxicity assay kit (from Sigma-Aldrich) following manufacturer's instructions. Briefly, Resazurin stock solution was diluted 1:10 in sterile PBS containing calcium and magnesium (PBS, pH 7.4) and empty wells were filled with 100 µL of the diluted solution. After 4 h incubation at 37 °C, fluorescence intensity was measured using microplate reader (Synergy Mx, Biotek) with an excitation wavelength of 530 nm and an emission wavelength of 590 nm. The fluorescence values were normalized by the controls (buffer treated cells) and expressed as percent viability. The IC50 values of peptides on cell viability (i.e. the concentration of derivative causing a reduction of 50% of cell viability) were determined using GraphPad® Prism 7 software. t-Test and two way ANOVA analyses were used to address the significant differences between mean values with significance set at p < 0.05.
# [14] = tested on: E. coli EHEC K88
# [15] = tested on: C. farmeri
# [16] = tested on: V. alginolyticus
# [17] = tested on: B. subtilis (Nisin-resistant)
# [18] = tested on: P. aeruginosa 01
# [19] = tested on: L. lactis
# [20] = tested on: E. coli
# [21] = BEAS-2B normal lung epithelial cells, normal lung epithelium, read-out: Cytotoxicity IC50 (µM) BEAS
# [22] = HUVEC (human umbilical vein endothelial cells), normal endothelium, read-out: Cytotoxicity IC50 (µM) HUVEC
# [23] = IMR-90 normal lung fibroblast cells, read-out: Cytotoxicity IC50 (µM) IMR90
smiles,measurement,setting,value
"CC[C@@H](C)[C@@H](N)C(=O)N[C@H](CC(C)C)C(=O)N[C@H](CCCCN)C(=O)N[C@H](C)C(=O)N[C@@H](C(=O)N[C@H](CCCCN)C(=O)N[C@H](CCCCN)C(=O)N[C@H](CC(C)C)C(=O)N[C@H](CC(C)C)C(=O)N[C@H](CCCCN)C(N)=O)[C@H](C)CC [(i1k10*) enantio, ilkaikkllk] (H-[dI][dL][dK][dA][dI][dK][dK][dL][dL][dK]-NH2)",MBC (µM) H. pylori,[1],50 µM
same,MIC (µM) H. pylori,[1],50 µM
same,IC50,[2],61.7 µM
same,IC50,[3],39.3 µM
same,IC50,[4],13.4 µM
same,MBC (µM) S. enterica,[5],25 µM
same,MIC (µM) S. enterica,[5],50 µM
same,MBC (µM) A. gandavensis,[6],1.5 µM
same,MIC (µM) A. gandavensis,[6],1.5 µM
same,MBC (µM) S. flexneri,[7],12.5 µM
same,MIC (µM) S. flexneri,[7],12.5 µM
same,MBC (µM) P. aeruginosa,[8],3.12 µM
same,MIC (µM) P. aeruginosa,[8],3.125 µM
same,MIC PA,[8],3.125 µM
same,MBC (µM) C. rodentium,[9],50 µM
same,MIC (µM) C. rodentium,[9],50 µM
same,MIC (µM) Serum4h,[10],1.5 µM
same,MIC (µM) Chymotrypsin,[10],1.5 µM
same,MIC (µM) Pepsin,[10],1.5 µM
same,MIC (µM) Trypsin,[10],1.5 µM
same,MIC (µM) Serum24h,[10],0.75 µM
same,stability to proteases and human serum,[10],not affected
same,MIC (µM) Control,[10],1.5 µM
same,MIC (µM) M. smegmatis,[11],6.25 µM
same,MBC (µM) P. aeruginosa FQR,[12],100 µM
same,MIC (µM) P. aeruginosa FQR,[12],12.5 to 25 µM
same,CC50 at 48 h,[13]; [21],726 µM
same,CC50 at 48 h,[13]; [22],683 µM
same,CC50 at 48 h,[13]; [23],365 µM
same,MBC (µM) E. coli EHEC K88,[14],50 µM
same,MIC (µM) E. coli EHEC K88,[14],50 µM
same,MBC (µM) C. farmeri,[15],50 µM
same,MIC (µM) C. farmeri,[15],12.5 µM
same,MBC (µM) V. alginolyticus,[16],1.5 µM
same,MIC (µM) V. alginolyticus,[16],0.78 to 1.56 µM
same,MBC (µM) B. subtilis (Nisin-resistant),[17],12.5 µM
same,MIC (µM) B. subtilis (Nisin-resistant),[17],12.5 µM
same,MBC (µM) P. aeruginosa 01,[18],50 µM
same,MIC (µM) P. aeruginosa 01,[18],12.5 µM
same,MBC (µM) L. lactis,[19],3.12 µM
same,MIC (µM) L. lactis,[19],1.5 µM
"CC[C@@H](C)[C@@H](N)C(=O)N[C@H](CC(C)C)C(=O)N[C@H](CCCCN)C(=O)N[C@H](C)C(=O)N[C@@H](C(=O)N[C@H](CCCCN)C(=O)N[C@H](CCCCN)C(=O)N[C@H](CC(C)C)C(=O)N[C@H](CC(C)C)C(=O)N[C@H](CCCCN)C(=O)N[C@H](CC(N)=O)C(N)=O)[C@H](C)CC [LTX-D (gallicune-1), ilkaikkllkn] (H-[dI][dL][dK][dA][dI][dK][dK][dL][dL][dK][dN]-NH2)",MBC (µM) H. pylori,[1],50 µM
same,MIC (µM) H. pylori,[1],50 µM
same,IC50,[2],56.2 µM
same,IC50,[3],33.7 µM
same,IC50,[4],6.51 µM
same,MBC (µM) S. enterica,[5],25 µM
same,MIC (µM) S. enterica,[5],25 µM
same,MBC (µM) A. gandavensis,[6],1.5 µM
same,MIC (µM) A. gandavensis,[6],1.5 µM
same,MBC (µM) S. flexneri,[7],12.5 µM
same,MIC (µM) S. flexneri,[7],12.5 µM
same,MBC (µM) P. aeruginosa,[8],1.5 µM
same,MIC (µM) P. aeruginosa,[8],1.5 µM
same,MIC PA,[8],1.5 µM
same,MBC (µM) C. rodentium,[9],25 µM
same,MIC (µM) C. rodentium,[9],12.5 µM
same,MIC (µM) Serum4h,[10],25 µM
same,MIC (µM) Chymotrypsin,[10],25 µM
same,MIC (µM) Pepsin,[10],25 µM
same,MIC (µM) Trypsin,[10],25 µM
same,MIC (µM) Serum24h,[10],12.5 µM
same,stability to proteases and human serum,[10],not affected
same,MIC (µM) Control,[10],25 µM
same,MIC (µM) M. smegmatis,[11],25 µM
same,MBC (µM) P. aeruginosa FQR,[12],12.5 µM
same,MIC (µM) P. aeruginosa FQR,[12],6.25 to 12.5 µM
same,CC50 at 48 h,[13]; [21],843 µM
same,CC50 at 48 h,[13]; [22],869 µM
same,CC50 at 48 h,[13]; [23],653 µM
same,MIC (µM) E. coli,[20],6.25 µM
same,MBC (µM) E. coli EHEC K88,[14],50 µM
same,MIC (µM) E. coli EHEC K88,[14],50 µM
same,MBC (µM) C. farmeri,[15],6.25 µM
same,MIC (µM) C. farmeri,[15],6.25 µM
same,MBC (µM) V. alginolyticus,[16],0.78 µM
same,MIC (µM) V. alginolyticus,[16],0.78 µM
same,MBC (µM) B. subtilis (Nisin-resistant),[17],6.25 µM
same,MIC (µM) B. subtilis (Nisin-resistant),[17],6.25 µM
same,MBC (µM) P. aeruginosa 01,[18],25 µM
same,MIC (µM) P. aeruginosa 01,[18],6.25 µM
same,MBC (µM) L. lactis,[19],1.5 µM
same,MIC (µM) L. lactis,[19],1.5 µM
